Results: patent US9399648B2, “Isothiazolopyridinones useful for the treatment of (inter alia) cystic fibrosis” (Vertex Pharmaceuticals Incorporated, priority 2007, dated 2016)

Target: T1, ΔF508-CFTR (Homo sapiens, UniProt P13569, DEL508-508)
T1 construct: expressed in transfected cells; host or cells: Fisher rat […] (FRT) cells expressing ΔF508-CFTR (Ussing chamber); NIH3T3 cells stably expressing ΔF508-CFTR (whole-cell recording)
Test: Assays for detecting and measuring ΔF508-CFTR potentiation properties of compounds (membrane potential optical / Ussing chamber / whole-cell recording)
Format: cell-based
Details: for Emax: relative efficacy, efficacy of putative ΔF508-CFTR potentiators compared to known potentiator genistein; for EC50: ΔF508-CFTR potentiation, the specific assay format behind Table 3 is not stated
Source text: Assays for Detecting and Measuring ΔF508-CFTR Potentiation Properties of Compounds
Membrane Potential Optical Methods for Assaying ΔF508-CFTR Modulation Properties of Compounds
The optical membrane potential assay utilized voltage-sensitive FRET sensors described by Gonzalez and Tsien (See Gonzalez, J. E. and R. Y. Tsien (1995) “Voltage sensing by fluorescence resonance energy transfer in single cells” Biophys J 69(4): 1272-80, and Gonzalez, J. E. and R. Y. Tsien (1997) “Improved indicators of cell membrane potential that use fluorescence resonance energy transfer” Chem Biol 4(4): 269-77) in combination with instrumentation for measuring fluorescence changes such as the Voltage/Ion Probe Reader (VIPR) (See Gonzalez, J. E., K. Oades, et al. (1999) “Cell-based assays and instrumentation for screening ion-channel targets” Drug Discov Today 4(9): 431-439).
These voltage sensitive assays are based on the change in fluorescence resonant energy transfer (FRET) between the membrane-soluble, voltage-sensitive dye, DiSBAC2(3), and a fluorescent phospholipid, CC2-DMPE, which is attached to the outer leaflet of the plasma membrane and acts as a FRET donor. Changes in membrane potential (Vm) cause the negatively charged DiSBAC2(3) to redistribute across the plasma membrane and the amount of energy transfer from CC2-DMPE changes accordingly. The changes in fluorescence emission were monitored using VIPR™ II, which is an integrated liquid handler and fluorescent detector designed to conduct cell-based screens in 96- or 384-well microtiter plates.
Identification of Potentiator Compounds
Typical protocol utilized a basolateral to apical membrane Cl^− concentration gradient. To set up this gradient, normal ringers was used on the basolateral membrane and was permeabilized with nystatin (360 μg/m), whereas apical NaCl was replaced by equimolar sodium gluconate (titrated to pH 7.4 with NaOH) to give a large Cl^− concentration gradient across the epithelium. All experiments were performed 30 min after nystatin permeabilization. Forskolin (10 μM) and all test compounds were added to both sides of the cell culture inserts. The efficacy of the putative ΔF508-CFTR potentiators was compared to that of the known potentiator, genistein.
Solutions • Basolateral solution (in mM): NaCl (135), CaCl2 (1.2), MgCl2 (1.2), K2HPO4 (2.4), KHPO4 (0.6), N-2-hydroxyethylpiperazine-N′-2-ethanesulfonic acid (HEPES) (10), and dextrose (10). The solution was titrated to pH 7.4 with NaOH. • Apical solution (in mM): Same as basolateral solution with NaCl replaced with Na Gluconate (135).
Fisher rat […] (FRT) cells expressing ΔF508-CFTR (FRTΔ^F508-CFTR) were used for Ussing chamber experiments for the putative ΔF508-CFTR modulators identified from our optical assays. The cells were cultured on Costar Snapwell cell culture inserts and cultured for five days at 37° C. and 5% CO2 in Coon's modified Ham's F-12 medium supplemented with 5% fetal calf serum, 100 U/ml penicillin, and 100 μg/m streptomycin. Prior to use for characterizing the potentiator activity of compounds, the cells were incubated at 27° C. for 16-48 hrs to correct for the ΔF508-CFTR. To determine the activity of corrections compounds, the cells were incubated at 27° C. or 37° C. with and without the compounds for 24 hours.
The macroscopic ΔF508-CFTR current (IΔF508) in temperature- and test compound-corrected NIH3T3 cells stably expressing ΔF508-CFTR were monitored using the perforated-patch, whole-cell recording. Briefly, voltage-clamp recordings of IΔF508 were performed at room temperature using an Axopatch 200B patch-clamp amplifier (Axon Instruments Inc., Foster City, Calif.). All recordings were acquired at a sampling frequency of 10 kHz and low-pass filtered at 1 kHz. […] Under these recording conditions, the calculated reversal potential for Cl^− (ECl) at room temperature was −28 mV. […]

T1 sequence (P13569 with tags, fused parts or gaps DEL508-508): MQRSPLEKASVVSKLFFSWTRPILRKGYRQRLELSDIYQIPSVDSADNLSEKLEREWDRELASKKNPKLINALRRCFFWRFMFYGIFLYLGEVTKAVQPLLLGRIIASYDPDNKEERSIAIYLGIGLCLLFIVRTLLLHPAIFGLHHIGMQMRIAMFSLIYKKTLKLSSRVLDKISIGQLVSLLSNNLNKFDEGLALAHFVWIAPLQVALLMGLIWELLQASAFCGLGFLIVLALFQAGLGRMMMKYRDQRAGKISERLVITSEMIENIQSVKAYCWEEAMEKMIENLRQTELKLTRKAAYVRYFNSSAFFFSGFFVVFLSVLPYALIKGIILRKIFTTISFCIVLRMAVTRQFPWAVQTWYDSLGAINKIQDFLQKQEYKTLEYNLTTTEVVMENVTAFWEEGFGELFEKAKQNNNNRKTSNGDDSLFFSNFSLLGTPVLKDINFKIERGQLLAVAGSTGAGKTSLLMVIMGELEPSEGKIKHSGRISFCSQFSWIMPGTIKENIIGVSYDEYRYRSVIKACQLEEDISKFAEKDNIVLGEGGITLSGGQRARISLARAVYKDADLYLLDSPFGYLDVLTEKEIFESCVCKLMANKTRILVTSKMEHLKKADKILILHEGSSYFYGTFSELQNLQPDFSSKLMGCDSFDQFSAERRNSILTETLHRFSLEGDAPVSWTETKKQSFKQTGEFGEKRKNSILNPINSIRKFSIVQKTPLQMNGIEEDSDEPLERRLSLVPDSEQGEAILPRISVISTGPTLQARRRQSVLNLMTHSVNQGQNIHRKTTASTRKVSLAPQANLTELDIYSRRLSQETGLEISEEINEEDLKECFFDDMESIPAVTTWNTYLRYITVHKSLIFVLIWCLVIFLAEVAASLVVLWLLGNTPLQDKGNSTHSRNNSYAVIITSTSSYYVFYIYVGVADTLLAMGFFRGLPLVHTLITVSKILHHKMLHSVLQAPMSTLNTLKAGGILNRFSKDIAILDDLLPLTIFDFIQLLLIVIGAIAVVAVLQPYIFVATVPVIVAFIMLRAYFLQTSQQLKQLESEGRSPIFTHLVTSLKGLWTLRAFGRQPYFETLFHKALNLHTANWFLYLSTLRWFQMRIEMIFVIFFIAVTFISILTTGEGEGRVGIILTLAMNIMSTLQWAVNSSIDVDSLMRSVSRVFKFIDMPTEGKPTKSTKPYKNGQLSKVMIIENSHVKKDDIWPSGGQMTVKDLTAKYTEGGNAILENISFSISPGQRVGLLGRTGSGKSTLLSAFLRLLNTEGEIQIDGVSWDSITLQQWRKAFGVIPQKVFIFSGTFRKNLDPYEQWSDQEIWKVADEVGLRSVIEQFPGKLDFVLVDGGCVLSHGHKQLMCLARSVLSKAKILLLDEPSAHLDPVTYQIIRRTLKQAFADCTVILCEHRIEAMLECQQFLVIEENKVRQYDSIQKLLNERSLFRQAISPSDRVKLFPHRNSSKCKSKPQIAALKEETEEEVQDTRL

Emax [%] | EC50 [µM] | SMILES
25 to 100 | < 10 | Cc1nsc2[nH]cc(C(=O)Nc3ccc(N4[C@H](C)CC[C@H]4C)cc3C(F)(F)F)c(=O)c12 [Compound 11]
25 to 100 | < 10 | Cc1nsc2[nH]cc(C(=O)Nc3ccc(N4CCC(F)(F)C4)cc3C(F)(F)F)c(=O)c12 [Compound 7]
25 to 100 | < 10 | Cc1nsc2[nH]cc(C(=O)Nc3cc4[nH]ccc4cc3C(F)(F)F)c(=O)c12 [Compound 9]
25 to 100 | < 10 | Cc1nsc2[nH]cc(C(=O)Nc3ccc(N4CCC(C)(C)C4)cc3C(F)(F)F)c(=O)c12 [Compound 8]
25 to 100 | < 10 | Cc1nsc2[nH]cc(C(=O)Nc3ccc(N4CC[C@@H](F)C4)cc3C(F)(F)F)c(=O)c12 [Compound 13]
25 to 100 | < 10 | Cc1nsc2[nH]cc(C(=O)Nc3cc(O)c(C4CCCC4)cc3C(F)(F)F)c(=O)c12 [Compound 12]
25 to 100 | < 10 | Cc1nsc2[nH]cc(C(=O)Nc3ccc(N4CCC[C@@H]4C)cc3C(F)(F)F)c(=O)c12 [Compound 4]
25 to 100 | < 10 | Cc1nsc2[nH]cc(C(=O)Nc3ccc(C(F)(F)F)c(O)c3)c(=O)c12 [Compound 6]
25 to 100 | < 10 | Cc1nsc2[nH]cc(C(=O)Nc3ccc(N4CC[C@H](F)C4)cc3C(F)(F)F)c(=O)c12 [Compound 10]

Second part, the compound before the results:

SMILES | Emax [%] | EC50 [µM]
Cc1nsc2[nH]cc(C(=O)Nc3cc(O)c(C(C)(C)C)cc3C(C)(C)C)c(=O)c12 [Compound 3] | 25 to 100 | < 10
Cc1nsc2[nH]cc(C(=O)Nc3ccc4c(C(F)(F)F)c[nH]c4c3)c(=O)c12 [Compound 1] | 25 to 100 | < 10
Cc1nsc2[nH]cc(C(=O)Nc3cc(O)c(C4CCCC4)cc3C#N)c(=O)c12 [Compound 15] | 25 to 100 | < 10
Cc1cc(C2CCCC2)c(O)cc1NC(=O)c1c[nH]c2snc(C)c2c1=O [Compound 16] | 25 to 100 | < 10
Cc1nsc2[nH]cc(C(=O)Nc3cc(O)c(C4(C)CCCCC4)cc3F)c(=O)c12 [Compound 5] | 25 to 100 | < 10
Cc1nsc2[nH]cc(C(=O)Nc3cc4[nH]ccc4cc3C(C)(C)C)c(=O)c12 [Compound 14] | 25 to 100 | < 10
Cc1nsc2[nH]cc(C(=O)Nc3ccc4c(C(C)(C)C)c[nH]c4c3)c(=O)c12 [Compound 2, N-(3-tert-butyl-1H-indol-6-yl)-3-methyl-4-oxo-4,7-dihydroisothiazolo[5,4-b]-pyridine-5-carboxamide] | 25 to 100 | < 10
